Source: patent US11858956B2, “6-aza-nucleoside prodrugs as antiviral agents for treating virus infections” (Southern Research Institute, priority 2020, dated 2024)

Columns and labels:
Type in all cases: cell-based
[1] = Cytotoxicity (CC50) in HEK293 cells; conditions: human, WNV
Description: (§1) As used herein, “CC50” is intended to refer to the concentration of a substance (e.g., a compound or a drug) that is required for 50% reduction of cell viability. In one aspect, an CC50 can refer to the concentration of a substance that is required for 50% reduction (i.e., cytotoxicity) in vivo, as further defined elsewhere herein.
The antiviral activity against Alpharviruses evaluated in HEK293 cells (4 hours pre-incubation with compound before infected with virus) is shown in Table 2 below. VTR=Virus titer reduction in log at 10 μM concentration. NT: not tested, ND: not determined

[2] = test system: DENV; assay: Antiviral activity against DENV in HEK293 cells; conditions: Dengue virus; for EC90: HEK293, read-out: DENV (HEK293 cells) EC90; for log reduction at 10 µM: HEK293, read-out: DENV (HEK293 cells) VTR (virus titer reduction)
[3] = test system: ZIKA; assay: Antiviral activity against ZIKA in HEK 293 cells; conditions: Zika virus; for EC90: HEK293, read-out: ZIKA (HEK 293 cells) EC90; for log reduction at 10 µM: HEK293, read-out: ZIKA (HEK 293 cells) VTR (virus titer reduction)
[4] = test system: CHIKV; assay: Antiviral activity against CHIKV in NHDF cells; conditions: Chikungunya virus; for EC90: read-out: CHIKV (NHDF cells) EC90; for log reduction at 10 µM: read-out: CHIKV (NHDF cells) VTR (virus titer reduction)
[5] = test system: H1N1 strain; assay: Antiviral activity against Influenza H1N1 strain in MDCK cells; conditions: Influenza A virus; for EC90: 4-6 hours pre-incubation with compound; for log reduction at 20 µM: at 20 μM concentration, 4-6 hours pre-incubation, read-out: H1N1 strain (MDCK cells) VTR (virus titer reduction)
Description: (§2) The antiviral activity against Influenza viruses (H1N1 and H3N2 strains) evaluated in MDCK cells (4-6 hours pre-incubation with compound) shown in Table 5 below. VTR=Virus titer reduction in log at 20 μM concentration. NT: not tested, ND: not determined.

[6] = Cytotoxicity (CC50) in MDCK cells; conditions: dog, H1N1
Description: as §1, §2

[7] = test system: H3N2 strain; assay: Antiviral activity against Influenza H3N2 strain in MDCK cells; conditions: Influenza A virus; for EC90: 4-6 hours pre-incubation with compound; for log reduction at 20 µM: at 20 μM concentration, 4-6 hours pre-incubation, read-out: H3N2 strain (MDCK cells) VTR (virus titer reduction)
Description: as §2

[8] = test system: WNV; assay: Antiviral activity against WNV in HEK293 cells; conditions: West Nile virus; for EC90: HEK293, read-out: WNV (HEK293 cells) EC90; for log reduction at 10 µM: HEK293, read-out: WNV (HEK293 cells) VTR (virus titer reduction)
[9] = Cytotoxicity (CC50) in NHDF cells; conditions: human, CHIKV
Description: as §1
VTR=Virus titer reduction in log at 10 μM concentration. NT: not tested, ND: not determined.

[10] = test system: VEEV; assay: microbe, parasite or virus in culture; conditions: Venezuelan equine encephalitis virus, NHDF; for EC90: read-out: VEEV (NHDF cells) EC90; for log reduction at 10 µM: read-out: VEEV (NHDF cells) VTR (virus titer reduction)

## O=C(Nc1cnn([C@@H]2O[C@H](CO)[C@@H](O)[C@H]2O)c(=O)n1)C1CCC1 [Compound 22, N-(2-((2R,3R,4S,5R)-3,4-dihydroxy-5-(hydroxymethyl)-tetrahydrofuran-2-yl)-3-oxo-2,3-dihydro-1,2,4-triazin-5-yl)-cyclobutanecarboxamide]
[1]
  CC50: 6.46 µM
[2]
  EC90: 1 µM
  log reduction at 10 µM: 3.2
[3]
  EC90: 0.4 µM
  log reduction at 10 µM: 2.6
[4]
  EC90: 8 µM
  log reduction at 10 µM: 0.89
[5]
  EC90: 0.68 µM
  log reduction at 20 µM: 2.9
[6]
  CC50: 19 µM
[7]
  EC90: 3.9 µM
  log reduction at 20 µM: 3

## N[C@@H](Cc1ccccc1)C(=O)OC[C@H]1O[C@@H](n2ncc(=O)[nH]c2=O)[C@H](O)[C@@H]1O [Compound 11, ((2r,3s,4r,5r)-5-(3,5-dioxo-4,5-dihydro-1,2,4-triazin-2(3H)-yl)-3,4-dihydroxytetrahydrofuran-2-yl)methyl L-phenylalaninate]
[8]
  EC90: > 30 µM
[2]
  EC90: > 30 µM
[3]
  EC90: > 30 µM
[4]
  EC90: > 10 µM
  log reduction at 10 µM: 0.05
[9]
  CC50: > 40 µM
[5]
  EC90: 0.14 µM
  log reduction at 20 µM: 3.4
[6]
  CC50: > 20 µM
[7]
  EC90: 0.78 µM
  log reduction at 20 µM: 3.4

## CCOC(=O)Nc1cnn([C@@H]2O[C@H](CO)[C@@H](O)[C@H]2O)c(=O)n1 [Compound 23, ethyl (2-((2R,3R,4S,5R)-3,4-dihydroxy-5-(hydroxy-methyl)tetrahydrofuran-2-yl)-3-oxo-2,3-dihydro-1,2,4-triazin-5-yl)carbamate]
[1]
  CC50: 22.4 µM
[2]
  EC90: 1.3 µM
  log reduction at 10 µM: 3.3
[3]
  EC90: 0.3 µM
  log reduction at 10 µM: 3
[4]
  EC90: > 10 µM
  log reduction at 10 µM: 0
[5]
  EC90: 3.78 µM
  log reduction at 20 µM: 3.6
[6]
  CC50: > 20 µM
[7]
  EC90: 6.3 µM
  log reduction at 20 µM: 2

## CC[C@H](C)[C@H](N)C(=O)OC[C@H]1O[C@@H](n2ncc(N)nc2=O)[C@H](O)[C@@H]1O [Compound 25, ((2r,3s,4r,5r)-5-(5-amino-3-oxo-1,2,4-triazin-2(3H)-yl)-3,4-dihydroxytetrahydrofuran-2-yl)methyl L-isoleucinate]
[1]
  CC50: > 40 µM
[2]
  EC90: 5.1 µM
  log reduction at 10 µM: 2
[4]
  EC90: 0.85 µM
  log reduction at 10 µM: 2.58
[9]
  CC50: > 40 µM
[10]
  EC90: 1.5 µM
  log reduction at 10 µM: 2.17

## CCC(CC)COC(=O)[C@H](C)NP(=O)(OC[C@H]1O[C@@H](n2ncc(N)nc2=O)C(O)C1O)Oc1ccccc1 (single isomer, unassigned) [Compound 17, 2-ethylbutyl ((((2r,9,4r,5r)-5-(5-amino-3-oxo-1,2,4-triazin-2(3H)-yl)-3,4-dihydroxytetrahydrofuran-2-yl)methoxy)-(phenoxy)phosphoryl)-L-alaninate]
[2]
  EC90: > 30 µM
[10]
  EC90: 5 µM
  log reduction at 10 µM: 1

## O=C(Nc1cnn([C@@H]2O[C@H](CO)[C@@H](O)[C@H]2O)c(=O)n1)C1CC1 [Compound 21, N-(2-((2R,3R,4S,5R)-3,4-dihydroxy-5-(hydroxymethyl)tetrahydro-furan-2-yl)-3-oxo-2,3-dihydro-1,2,4-triazin-5-yl)cyclopropane-carboxamide]
[8]
  EC90: 0.4 µM
  log reduction at 10 µM: 4.5
[1]
  CC50: 18.9 µM
[2]
  EC90: 0.34 µM
  log reduction at 10 µM: 3.4
[3]
  EC90: 0.2 µM
  log reduction at 10 µM: 4
[4]
  EC90: 4.9 µM
  log reduction at 10 µM: 1.7
[5]
  EC90: 2.8 µM
  log reduction at 20 µM: 3.6
[6]
  CC50: > 20 µM
[7]
  EC90: 3.9 µM
  log reduction at 20 µM: 3

## CCCCCOC(=O)Nc1cnn([C@@H]2O[C@H](CO)[C@@H](O)[C@H]2O)c(=O)n1 [Compound 24, pentyl (2-((2R,3R,4S,5R)-3,4-dihydroxy-5-(hydroxy-methyl)tetrahydrofuran-2-yl)-3-oxo-2,3-dihydro-1,2,4-triazin-5-yl)carbamate]
[1]
  CC50: 20.4 µM
[2]
  EC90: 1.2 µM
  log reduction at 10 µM: 3.3
[3]
  EC90: 0.3 µM
  log reduction at 10 µM: 3.1
[4]
  EC90: > 10 µM
  log reduction at 10 µM: 0
[5]
  log reduction at 20 µM: 2.9
[7]
  log reduction at 20 µM: 1.6

## CCCCCCCCCCCC(=O)Nc1cnn([C@@H]2O[C@H](CO)[C@@H](O)[C@H]2O)c(=O)n1 [Compound 19, N-(2-((2r,3r,4s,5r)-3,4-dihydroxy-5-(hydroxy-methyl)tetrahydrofuran-2-yl)-3-oxo-2,3-dihydro-1,2,4-triazin-5-yl)dodecanamide]
[8]
  EC90: 0.7 µM
  log reduction at 10 µM: 4
[1]
  CC50: > 40 µM
[2]
  EC90: 0.6 µM
  log reduction at 10 µM: 2.1
[3]
  EC90: 1.1 µM
  log reduction at 10 µM: 2.6
[5]
  EC90: 3.16 µM
  log reduction at 20 µM: 3.3
[6]
  CC50: > 20 µM
[7]
  EC90: 12.1 µM
  log reduction at 20 µM: 3.3

## CC[C@H](C)[C@@H](N)C(=O)OC[C@H]1O[C@@H](n2ncc(=O)[nH]c2=O)C(O)C1O (stereo partly drawn) [Compound 13, ((2r,3s,4r,5r)-5-(3,5-dioxo-4,5-dihydro-1,2,4-triazin-2(3)-yl)-3,4-dihydroxytetrahydrofuran-2-yl)methyl D-alloisoleucinate]
[1]
  CC50: 6.7 µM
[2]
  EC90: 0.5 µM
  log reduction at 10 µM: 4
[4]
  EC90: 0.51 µM
  log reduction at 10 µM: 4.3
[9]
  CC50: > 40 µM
[5]
  log reduction at 20 µM: 3.6
[7]
  log reduction at 20 µM: 2.8

## CCC(CC)COC(=O)[C@H](C)NP(=O)(OC[C@H]1O[C@@H](n2ncc(=O)[nH]c2=O)[C@H](O)[C@@H]1O)Oc1ccccc1 (mixture of isomers) [Compound 3, 2-ethylbutyl ((((2R,3S,4R,5R)-5-(3,5-dioxo-4,5-dihydro-1,2,4-triazin-2(3H)-yl)-3,4-dihydroxytetrahydrofuran-2-yl)methoxy)(phenoxy)phosphoryl)-L-alaninate]
[8]
  EC90: 2.9 µM
  log reduction at 10 µM: 3.2
[1]
  CC50: > 40 µM
[2]
  EC90: 2.5 µM
  log reduction at 10 µM: 3.5
[3]
  EC90: 3.3 µM
  log reduction at 10 µM: 2.4
[4]
  EC90: > 10 µM
  log reduction at 10 µM: 0
[9]
  CC50: > 40 µM
[10]
  EC90: > 10 µM
  log reduction at 10 µM: 0

## CC[C@@H](C)[C@@H](N)C(=O)OC[C@H]1O[C@@H](n2ncc(=O)[nH]c2=O)[C@H](O)[C@@H]1O [Compound 12, ((2r,3s,4r,5r)-5-(3,5-dioxo-4,5-dihydro-1,2,4-triazin-2(3H)-yl)-3,4-dihydroxytetrahydrofuran-2-yl)methyl D-isoleucinate]
[1]
  CC50: 6.2 µM
[2]
  EC90: 0.5 µM
  log reduction at 10 µM: 3.9
[4]
  EC90: 0.89 µM
  log reduction at 10 µM: 4.55
[9]
  CC50: > 40 µM

## CCOP(=O)(OCC)OC[C@H]1O[C@@H](n2ncc(=O)[nH]c2=O)C(O)C1O (stereo partly drawn) [Compound 16, (2r,3s,4r,5r)-5-(3,5-dioxo-4,5-dihydro-1,2,4-triazin-2(3H)-yl)-3,4-dihydroxytetrahydrofuran-2-yl) methyl diethyl phosphate]
[8]
  EC90: > 10 µM
[1]
  CC50: > 40 µM
[2]
  EC90: > 30 µM
[3]
  EC90: > 10 µM
[10]
  EC90: 10.1 µM
  log reduction at 10 µM: 1.05
[5]
  EC90: > 100 µM
[6]
  CC50: > 100 µM

## CC(C)C(=O)OC[C@H]1O[C@@H](n2ncc(=O)[nH]c2=O)[C@H](O)[C@@H]1O [Compound 14, ((2r,3s,4r,5r)-5-(3,5-dioxo-4,5-dihydro-1,2,4-triazin-2(3H)-yl)-3,4-dihydroxytetrahydrofuran-2-yl)-methyl isobutyrate]
[1]
  CC50: > 40 µM
[2]
  EC90: 5 µM
  log reduction at 10 µM: 2.1
[5]
  EC90: 3.6 µM
  log reduction at 20 µM: 3.3
[6]
  CC50: > 20 µM
[7]
  EC90: 16.4 µM
  log reduction at 20 µM: 3.3

## CCCC(=O)Nc1cnn([C@@H]2O[C@H](CO)[C@@H](O)[C@H]2O)c(=O)n1 [Compound 20, N-(2-((2R,3R,4S,5R)-3,4-dihydroxy-5-(hydroxymethyl)tetrahydro-furan-2-yl)-3-oxo-2,3-dihydro-1,2,4-triazin-5-yl)butyramide]
[1]
  CC50: 22.9 µM
[2]
  EC90: 1.2 µM
  log reduction at 10 µM: 3
[3]
  EC90: 0.2 µM
  log reduction at 10 µM: 2.8
[4]
  EC90: 9 µM
  log reduction at 10 µM: 1.5
[5]
  EC90: 2.8 µM
  log reduction at 20 µM: 2.9
[6]
  CC50: > 20 µM
[7]
  EC90: 3.5 µM
  log reduction at 20 µM: 2.7
